Reference: patent publication US10201523B2, “Use of wilforlide A for overcoming chemotherapy resistance” (WESTERN UNIVERSITY OF HEALTH SCIENCES, priority 2013, dated 2019)
Values joined by “and” are separate entries in the source; they are usually repeats but may differ in a detail not shown here. Equal values may be shown once. Read-outs that look alike come from different tables or passages of the source.

How the values were obtained:
PC3 = assay: SRB cell viability assay, docetaxel with/without wilforlide A pretreatment; conditions: PC3
Experimental: Following the 72 hour wilforlide A treatment, a sulforhodamine B (SRB) assay was used to quantitate living cells. To perform the assay, the wilforlide A media was aspirated from each well, and replaced with a 10% solution of cold trichloroacetic acid (TCA) (Cat #: T6399, purchased from Sigma-Aldrich), and incubated for one hour at 4° C. After the TCA incubation, the TCA solution was aspirated, and the cells were washed five times with tap water. After removing the last wash, the plates were left with lids off at room temperature until the surfaces were dry, which took one to two hours. Then 50 μl of a 0.4% solution of sul-forhodamine B (SRB) sodium salt (Cat #: S9012, purchased from Sigma-Aldrich) was added to each well and the plates were incubated at room temperature for 20 to 30 minutes. Afterwards, the wells were washed five times with a 1% acetic acid solution in 10 mM TRIS base (Cat #: 161-0719, purchased from Bio-Rad Laboratories, Hercules, Calif.). The plates were subsequently left to dry for several hours or overnight. SRB that remained in the dried wells was solubilized by adding 100 μl of SRB solubilization solution (10 mM TRIS base) to each well, and placing the plates either on a gently-moving shaker or letting the plates remain stationary at room temperature until the SRB dissolves, which takes about five to ten minutes. The amount of SRB in each well, which correlated directly to the number of living cells at fixation, was determined spectrophotometrically at an absorbance of 565 nm by a microplate reader.
In these comparisons, the in vitro IC50 of a tested chemotherapeutic drug (D) in cell culture was compared to the drug's IC50 when drug treatment followed pretreatment of the cells with wilforlide A (Purchased from PI & PI Technology Inc. of Guangzhou, China or the National Institutes for Food and Drug Control in Beijing, China).
Triplicate wells were assigned to each experimental condition tested, and a 24 hour recovery period for the cells following the seeding of the wells was allowed. During the recovery period, the cells were incubated at 37° C. and 5% CO2.
At the end of the two hour pre-treatment period, 50 μl aliquots of the desired chemotherapeutic drug RPMI medium were added according to the amounts provided in Table 2.
After adding the various doses of chemotherapeutic drugs, as described above, the cells were incubated for an additional 72 hours under the same temperature and atmospheric conditions used for the pre-treatment step.
The cells were then incubated for 72 hours at 37° C. and 5% CO2. After the 72 hour incubation, sulforhodamine B (SRB) assays were performed as described in Example 1 to quantitate living cells.

DU-145 = assay: SRB cell viability assay, docetaxel IC50 with/without wilforlide A pretreatment; type: cell-based; conditions: for IC50: Homo sapiens
[1] = wilforlide A 0.6 μg/ml pre-Tx, docetaxel 0.1 nM 72 h
[2] = wilforlide A 0.6 μg/ml pre-Tx, docetaxel 0.333 nM 72 h
[3] = wilforlide A 0.6 μg/ml pre-Tx, docetaxel 1 nM 72 h
[4] = wilforlide A 0.6 μg/ml pre-Tx, docetaxel 3.33 nM 72 h
[5] = wilforlide A 0.6 μg/ml pre-Tx, docetaxel 10 nM 72 h
[6] = wilforlide A 0.6 μg/ml pre-Tx, docetaxel 33.3 nM 72 h
[7] = wilforlide A 0.6 μg/ml pre-Tx, docetaxel 100 nM 72 h
[8] = wilforlide A 2.5 μg/ml pre-Tx, docetaxel 0.001 nM 72 h
[9] = wilforlide A 2.5 μg/ml pre-Tx, docetaxel 0.1 nM 72 h
[10] = wilforlide A 2.5 μg/ml pre-Tx, docetaxel 0.333 nM 72 h
[11] = wilforlide A 2.5 μg/ml pre-Tx, docetaxel 1 nM 72 h
[12] = wilforlide A 2.5 μg/ml pre-Tx, docetaxel 3.33 nM 72 h
[13] = wilforlide A 2.5 μg/ml pre-Tx, docetaxel 10 nM 72 h
[14] = wilforlide A 2.5 μg/ml pre-Tx, docetaxel 33.3 nM 72 h
[15] = wilforlide A 2.5 μg/ml pre-Tx, docetaxel 100 nM 72 h
[16] = wilforlide A […] pre-Tx, docetaxel 0.001 nM 72 h
[17] = wilforlide A […] pre-Tx, docetaxel 0.1 nM 72 h
[18] = wilforlide A […] pre-Tx, docetaxel 0.333 nM 72 h
[19] = wilforlide A […] pre-Tx, docetaxel 1 nM 72 h
[20] = wilforlide A […] pre-Tx, docetaxel 3.33 nM 72 h
[21] = wilforlide A […] pre-Tx, docetaxel 10 nM 72 h
[22] = wilforlide A […] pre-Tx, docetaxel 33.3 nM 72 h
[23] = wilforlide A […] pre-Tx, docetaxel 100 nM 72 h

CC(=O)O[C@@]12CO[C@@H]1C[C@H](O)[C@@]1(C)C(=O)[C@H](O)C3=C(C)[C@@H](OC(=O)[C@H](O)[C@@H](NC(=O)OC(C)(C)C)c4ccccc4)C[C@@](O)([C@@H](OC(=O)c4ccccc4)[C@H]21)C3(C)C [docetaxel]
mean A (PC3; wilforlide A 0.6 μg/ml pre-Tx, docetaxel 0.001 nM 72 h): 1.807
A at 565 nm (PC3; wilforlide A 0.6 μg/ml pre-Tx, docetaxel 0.001 nM 72 h, background = 0.043): 1.812 and 1.840 and 1.769
% viable (PC3; [1]): 102.3%
mean A (PC3; [1]): 1.848
A at 565 nm (PC3; wilforlide A 0.6 μg/ml pre-Tx, docetaxel 0.1 nM 72 h, background = 0.043): 1.855 and 1.874 and 1.816
% viable (PC3; [2]): 99.3%
mean A (PC3; [2]): 1.794
A at 565 nm (PC3; wilforlide A 0.6 μg/ml pre-Tx, docetaxel 0.333 nM 72 h, background = 0.043): 1.759 and 1.804 and 1.820
% viable (PC3; [3]): 72.9%
mean A (PC3; [3]): 1.317
A at 565 nm (PC3; wilforlide A 0.6 μg/ml pre-Tx, docetaxel 1 nM 72 h, background = 0.043): 1.303 and 1.386 and 1.263
% viable (PC3; [4]): 44.9%
mean A (PC3; [4]): 0.811
A at 565 nm (PC3; wilforlide A 0.6 μg/ml pre-Tx, docetaxel 3.33 nM 72 h, background = 0.043): 0.843 and 0.814 and 0.777
% viable (PC3; [5]): 22.7%
mean A (PC3; [5]): 0.409
A at 565 nm (PC3; wilforlide A 0.6 μg/ml pre-Tx, docetaxel 10 nM 72 h, background = 0.043): 0.408 and 0.421 and 0.400
% viable (PC3; [6]): 17.5%
mean A (PC3; [6]): 0.316
A at 565 nm (PC3; wilforlide A 0.6 μg/ml pre-Tx, docetaxel 33.3 nM 72 h, background = 0.043): 0.302 and 0.323
% viable (PC3; [7]): 16.5%
mean A (PC3; [7]): 0.299
A at 565 nm (PC3; wilforlide A 0.6 μg/ml pre-Tx, docetaxel 100 nM 72 h, background = 0.043): 0.290 and 0.287 and 0.320
% viable (PC3; [8]): 100.0%
mean A (PC3; [8]): 1.752
% viable (PC3; [9]): 101.9%
mean A (PC3; [9]): 1.786
% viable (PC3; [10]): 94.1%
mean A (PC3; [10]): 1.648
A at 565 nm (PC3; wilforlide A 2.5 μg/ml pre-Tx, docetaxel 0.333 nM 72 h, background = 0.044): 1.672
% viable (PC3; [11]): 69.8%
mean A (PC3; [11]): 1.222
A at 565 nm (PC3; wilforlide A 2.5 μg/ml pre-Tx, docetaxel 1 nM 72 h, background = 0.044): 1.201
% viable (PC3; [12]): 43.9%
mean A (PC3; [12]): 0.769
A at 565 nm (PC3; wilforlide A 2.5 μg/ml pre-Tx, docetaxel 3.33 nM 72 h, background = 0.044): 0.810
% viable (PC3; [13]): 23.0%
mean A (PC3; [13]): 0.403
A at 565 nm (PC3; wilforlide A 2.5 μg/ml pre-Tx, docetaxel 10 nM 72 h, background = 0.044): 0.402
% viable (PC3; [14]): 19.2%
mean A (PC3; [14]): 0.336
A at 565 nm (PC3; wilforlide A 2.5 μg/ml pre-Tx, docetaxel 33.3 nM 72 h, background = 0.044): 0.358
% viable (PC3; [15]): 18.4%
mean A (PC3; [15]): 0.322
A at 565 nm (PC3; wilforlide A 2.5 μg/ml pre-Tx, docetaxel 100 nM 72 h, background = 0.044): 0.318
% viable (PC3; [16]): 100.0%
mean A (PC3; [16]): 1.957
% viable (PC3; [17]): 100.4%
mean A (PC3; [17]): 1.965
% viable (PC3; [18]): 92.2%
mean A (PC3; [18]): 1.804
% viable (PC3; [19]): 67.0%
mean A (PC3; [19]): 1.311
% viable (PC3; [20]): 41.7%
mean A (PC3; [20]): 0.816
% viable (PC3; [21]): 23.9%
mean A (PC3; [21]): 0.467
% viable (PC3; [22]): 19.1%
mean A (PC3; [22]): 0.373
% viable (PC3; [23]): 18.4%
mean A (PC3; [23]): 0.361
IC50 (PC3; read-out: Drug IC50 after wilforlide A pre-Tx, pre-Tx amount of wilforlide A printed as none added): 1.61 nM
IC50 (DU-145; 72 h, read-out: Drug IC50 no pre-Tx): > 100 nM
IC50 (DU-145; wilforlide A 2.5 μg/ml pre-Tx, read-out: Drug IC50 after wilforlide A pre-Tx): 42.5 nM
CE (DU-145; chemosensitization effect, wilforlide A 2.5 μg/ml pre-Tx): >2.35
